From patent US20110281949A1, “METHODS AND COMPOSITIONS FOR TREATING NEURONAL DAMAGE AND MODULATING TRANSIENT RECEPTOR POTENTIAL CHANNELS” (priority 2008, published 2011)
“Also recorded” adds a separate entry of the source. Like-named read-outs stand apart in the source and are kept apart here.

Assays:
TRPL channels = molecular target: T1, TRPL channels (Drosophila melanogaster, UniProt P48994); assay: Whole-cell patch clamp of TRPL channels expressed in S2 cells; conditions: for Effect on TRPL-mediated current: XIII 3 mM, XIV 1 mM, XII 2 mM, XV up to 5 mM, X 5 mM, XVI 5 mM, XI 10 mM; for TRPL Activation/Inhibition: TRPL expressed in S2 cells
T1 sequence (P48994 1-1124): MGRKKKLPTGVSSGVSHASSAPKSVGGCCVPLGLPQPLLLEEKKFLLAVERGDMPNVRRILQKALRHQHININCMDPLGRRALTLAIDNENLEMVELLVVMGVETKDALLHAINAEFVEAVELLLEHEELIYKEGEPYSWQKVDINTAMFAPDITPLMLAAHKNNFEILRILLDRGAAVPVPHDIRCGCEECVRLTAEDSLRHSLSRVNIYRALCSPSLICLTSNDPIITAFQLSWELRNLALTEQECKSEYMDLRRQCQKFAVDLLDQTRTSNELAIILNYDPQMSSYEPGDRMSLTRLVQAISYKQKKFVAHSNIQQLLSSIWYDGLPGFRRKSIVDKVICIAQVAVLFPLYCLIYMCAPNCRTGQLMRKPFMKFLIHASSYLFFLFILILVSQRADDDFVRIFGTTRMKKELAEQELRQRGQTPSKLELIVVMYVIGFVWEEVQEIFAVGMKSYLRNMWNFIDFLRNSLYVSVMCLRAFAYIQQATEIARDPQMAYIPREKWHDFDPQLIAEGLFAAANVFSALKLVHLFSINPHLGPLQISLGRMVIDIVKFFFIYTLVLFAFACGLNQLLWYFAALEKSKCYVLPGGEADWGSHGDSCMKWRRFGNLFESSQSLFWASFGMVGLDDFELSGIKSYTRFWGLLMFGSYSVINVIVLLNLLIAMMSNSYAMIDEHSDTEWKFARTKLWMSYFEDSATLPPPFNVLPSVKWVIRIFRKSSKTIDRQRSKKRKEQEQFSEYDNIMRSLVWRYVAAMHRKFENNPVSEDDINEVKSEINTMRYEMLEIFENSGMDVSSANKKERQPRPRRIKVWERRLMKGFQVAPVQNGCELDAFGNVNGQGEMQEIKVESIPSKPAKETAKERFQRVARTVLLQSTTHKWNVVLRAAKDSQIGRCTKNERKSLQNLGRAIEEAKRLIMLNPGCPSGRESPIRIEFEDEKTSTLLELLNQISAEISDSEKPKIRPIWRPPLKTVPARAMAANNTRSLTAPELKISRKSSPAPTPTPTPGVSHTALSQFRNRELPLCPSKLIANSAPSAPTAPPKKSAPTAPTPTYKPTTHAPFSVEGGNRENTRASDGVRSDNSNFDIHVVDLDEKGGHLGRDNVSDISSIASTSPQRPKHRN
Experimental: Schneider 2 cells were grown in 25 cm^2 flasks at 25° C. in Schneider medium (Beit HaEmek biological industries, Israel) supplemented with 10% fetal bovine serum (FBS) and 1% pen-strep reagent.
24 hours prior to the experiment, 500 μM CuSO4 was added to the medium of the S2 cells to induce expression of the channels. […] Currents were recorded at room temperature using borosilicate patch pipettes of 5-8 MΩ and an Axopatch 1D (Molecular Devices, Inc.) voltage-clamp amplifier. […] Currents were filtered using the 8-pole low pass Bessel filter of the patch-clamp amplifier at 5 kHz and sampled at 20 kHz. To measure I-V curves with minimal distortions, only cells with low (<10 MΩ) series resistance were used, and series resistance was compensated to ˜80%.
For S2 cells, the extracellular solution contained in mM: 150 NaCl, 5 KCl, 4 MgCl2, 10 TES, 25 proline, 5 alanine and 0.5 EGTA. The intracellular solution contained in mM: 130 K-gluconate, 10 TES, 2 MgCl2, 4 Mg-ATP and 0.4 Na-GTP. […] All solutions were titrated to pH 7.2. Cells were perfused via a BPS-8 valve control system (Scientific Instruments) at a rate of ˜30 chamber volumes per minute. Chemicals were applied via the perfusion system.

TRPM7 = TRPM7 (Mus musculus, UniProt Q923J1); assay: Whole-cell patch clamp of TRPM7 expressed in HEK cells; format: cell-based, mammalian; design: expressed in transfected cells; host or cells: HEK / HEK293 cells, transient, TransIT reagent (Mirus); conditions: HEK cells expressing TRPM7; IX 500 μM
Experimental: Human embryonic kidney (HEK) cells were grown in 25 cm^2 flasks at 37° C. in Dulbecco's Modified Eagle's Medium (DMEM) (Beit Haemek biological industries, Israel) supplemented with 10% FBS, 1% pen-strep and 1% L-Glutamine. TRPM7 (GenBank accession number NM—021450; SEQ ID No: 19; provided by David Clapham) and pIRES-eGFP were transiently expressed using TransIT™ reagent (Mirus).
Cells were seeded on polylysine-coated plates at a confluence of 25%, 24-72 hours prior to the experiment. […] Whole-cell, patch-clamp recordings were performed as described (Parnas et al, 2007). Currents were recorded at room temperature using borosilicate patch pipettes of 5-8 MΩ and an Axopatch 1D (Molecular Devices, Inc.) voltage-clamp amplifier. Voltage-clamp pulses were generated and data captured using a Digidata 1322A interfaced to a computer running the pClamp 9.2 software (Axon Instruments, Inc.). Currents were filtered using the 8-pole low pass Bessel filter of the patch-clamp amplifier at 5 kHz and sampled at 20 kHz. To measure I-V curves with minimal distortions, only cells with low (<10 MΩ) series resistance were used, and series resistance was compensated to ˜80%.
For HEK cells, the extracellular solution contained in mM: 140 NaCl, 2.8 KCl, 2 CaCl2, 1 MgCl2, HEPES and 10 glucose. The intracellular solution contained in mM: 140 Cs-Aspartate, 8 NaCl, 10 EGTA and 10 HEPES. All solutions were titrated to pH 7.2. Cells were perfused via a BPS-8 valve control system (Scientific Instruments) at a rate of ˜30 chamber volumes per minute. Chemicals were applied via the perfusion system.

TRPV3 = conditions: literature; cited from earlier work
TRPA1 = TRPA1 (Homo sapiens, UniProt O75762); conditions: irreversible, by covalent modification; cited from earlier work
TRPA1, sequence (O75762 whole entry, species assumed): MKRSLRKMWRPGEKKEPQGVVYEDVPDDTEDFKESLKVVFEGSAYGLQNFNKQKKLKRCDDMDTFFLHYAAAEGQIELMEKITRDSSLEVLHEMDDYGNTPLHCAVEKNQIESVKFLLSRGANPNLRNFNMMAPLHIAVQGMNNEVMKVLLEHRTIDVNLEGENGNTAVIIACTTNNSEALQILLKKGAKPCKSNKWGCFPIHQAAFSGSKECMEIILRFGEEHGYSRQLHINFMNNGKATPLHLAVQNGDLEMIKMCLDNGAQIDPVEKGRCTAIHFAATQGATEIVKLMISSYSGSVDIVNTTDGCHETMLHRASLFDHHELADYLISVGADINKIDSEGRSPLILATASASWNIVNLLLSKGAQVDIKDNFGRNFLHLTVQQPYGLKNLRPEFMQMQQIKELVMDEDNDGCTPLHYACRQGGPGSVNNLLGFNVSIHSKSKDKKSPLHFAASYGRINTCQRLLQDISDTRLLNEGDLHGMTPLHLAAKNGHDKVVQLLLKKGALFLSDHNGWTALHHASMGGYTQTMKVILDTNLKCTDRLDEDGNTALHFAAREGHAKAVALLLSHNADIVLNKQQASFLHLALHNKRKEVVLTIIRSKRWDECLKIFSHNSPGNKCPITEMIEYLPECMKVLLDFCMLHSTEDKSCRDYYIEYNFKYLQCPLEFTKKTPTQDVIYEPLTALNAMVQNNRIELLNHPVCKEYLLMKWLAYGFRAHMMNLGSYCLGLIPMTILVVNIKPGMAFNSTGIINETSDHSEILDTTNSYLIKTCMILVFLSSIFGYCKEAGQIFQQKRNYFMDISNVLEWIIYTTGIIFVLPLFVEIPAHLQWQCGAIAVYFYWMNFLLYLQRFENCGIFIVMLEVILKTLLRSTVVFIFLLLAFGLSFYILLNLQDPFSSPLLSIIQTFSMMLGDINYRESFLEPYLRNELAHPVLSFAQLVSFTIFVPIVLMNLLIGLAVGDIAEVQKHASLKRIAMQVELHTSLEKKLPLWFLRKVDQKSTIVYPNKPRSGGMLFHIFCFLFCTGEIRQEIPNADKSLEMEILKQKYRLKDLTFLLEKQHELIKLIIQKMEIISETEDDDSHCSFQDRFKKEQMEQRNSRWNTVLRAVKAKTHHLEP

TRPM7, sequence (Q923J1 whole entry): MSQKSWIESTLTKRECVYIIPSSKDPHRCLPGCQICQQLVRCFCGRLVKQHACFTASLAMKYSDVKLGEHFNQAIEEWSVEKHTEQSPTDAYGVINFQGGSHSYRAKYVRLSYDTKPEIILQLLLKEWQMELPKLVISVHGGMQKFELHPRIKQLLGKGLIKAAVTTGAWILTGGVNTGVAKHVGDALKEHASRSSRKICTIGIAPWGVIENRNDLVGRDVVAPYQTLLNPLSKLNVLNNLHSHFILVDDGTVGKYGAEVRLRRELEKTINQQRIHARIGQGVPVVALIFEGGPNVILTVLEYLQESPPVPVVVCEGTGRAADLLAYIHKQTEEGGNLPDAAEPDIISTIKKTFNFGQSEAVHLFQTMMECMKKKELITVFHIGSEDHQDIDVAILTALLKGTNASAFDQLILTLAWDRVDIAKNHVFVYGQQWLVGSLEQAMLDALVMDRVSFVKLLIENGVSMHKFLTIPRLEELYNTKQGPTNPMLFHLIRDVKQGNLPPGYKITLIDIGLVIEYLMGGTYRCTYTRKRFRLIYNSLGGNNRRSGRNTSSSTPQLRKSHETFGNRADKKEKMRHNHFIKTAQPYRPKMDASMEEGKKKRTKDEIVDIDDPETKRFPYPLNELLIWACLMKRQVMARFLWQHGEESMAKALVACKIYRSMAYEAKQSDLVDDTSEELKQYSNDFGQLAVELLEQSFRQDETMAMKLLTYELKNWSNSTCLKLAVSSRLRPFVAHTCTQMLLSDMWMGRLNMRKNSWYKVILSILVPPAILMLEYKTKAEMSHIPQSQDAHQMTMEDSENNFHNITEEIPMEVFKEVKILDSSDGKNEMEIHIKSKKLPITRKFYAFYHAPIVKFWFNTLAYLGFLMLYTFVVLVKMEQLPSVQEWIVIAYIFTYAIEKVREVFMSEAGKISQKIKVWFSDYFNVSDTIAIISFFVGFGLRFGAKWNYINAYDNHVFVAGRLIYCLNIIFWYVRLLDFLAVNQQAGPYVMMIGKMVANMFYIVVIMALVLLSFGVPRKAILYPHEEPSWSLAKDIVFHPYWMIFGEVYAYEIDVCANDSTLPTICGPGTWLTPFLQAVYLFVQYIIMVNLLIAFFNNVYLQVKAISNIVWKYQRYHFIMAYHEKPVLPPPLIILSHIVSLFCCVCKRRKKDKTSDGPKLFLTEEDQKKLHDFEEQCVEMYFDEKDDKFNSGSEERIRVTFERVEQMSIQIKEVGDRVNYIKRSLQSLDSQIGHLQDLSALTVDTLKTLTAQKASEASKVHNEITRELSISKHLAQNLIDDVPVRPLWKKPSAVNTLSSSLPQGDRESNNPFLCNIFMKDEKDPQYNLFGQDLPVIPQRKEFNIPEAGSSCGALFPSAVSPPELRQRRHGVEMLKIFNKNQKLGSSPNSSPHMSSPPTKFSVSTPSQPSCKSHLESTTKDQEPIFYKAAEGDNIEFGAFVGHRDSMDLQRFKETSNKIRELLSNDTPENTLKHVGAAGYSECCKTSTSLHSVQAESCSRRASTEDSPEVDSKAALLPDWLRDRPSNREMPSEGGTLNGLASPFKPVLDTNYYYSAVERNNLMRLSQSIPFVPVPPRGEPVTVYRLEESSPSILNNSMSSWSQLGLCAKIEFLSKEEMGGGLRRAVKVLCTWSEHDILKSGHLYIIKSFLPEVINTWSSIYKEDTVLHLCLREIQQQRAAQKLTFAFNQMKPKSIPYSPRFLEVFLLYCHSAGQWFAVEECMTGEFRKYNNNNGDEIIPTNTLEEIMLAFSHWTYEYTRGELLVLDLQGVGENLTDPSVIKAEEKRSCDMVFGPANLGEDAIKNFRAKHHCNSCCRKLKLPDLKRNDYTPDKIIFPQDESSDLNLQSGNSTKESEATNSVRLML

CC(C)[C@@H]1CC[C@@H](C)C[C@H]1O [Compound X, 2-Isopropyl-5-methylcyclohexanol]
IC50 (TRPL channels): 1810 ± 130 µM | Effect on TRPL-mediated current (TRPL channels; S2 cells, IX 500 μM, XVII 5 mM): large decrease in the TRPL-dependent current | TRPL Activation/Inhibition (TRPL channels): Inhibition | Effect on TRPM7-mediated current (TRPM7): inhibit TRPM7

CC12CCC(CC1=O)C2(C)C (stereo not drawn) [Compound XI, 1,7,7-Trimethylbicyclo[2.2.1]heptan-2-one]
Effect on TRPL-mediated current (TRPL channels; S2 cells, IX 500 μM, XVII 5 mM): activated the TRPL channel | TRPL Activation/Inhibition (TRPL channels): Activation | TRPV3 activation (TRPV3): believed to activate TRPV3

O=C/C=C/c1ccccc1 [Compound XII, trans-3-Phenyl-2-propenal]
Reversibility of effect on TRPL channel (TRPL channels; S2 cells): reversible | Effect on TRPL-mediated current (TRPL channels; S2 cells, IX 500 μM, XVII 5 mM): inhibited TRPL activity; also recorded: decreased the TRPL-mediated current | TRPL Activation/Inhibition (TRPL channels): Inhibition | IC50 (TRPL channels; read-out: IC50 of TRPL inhibition, S2 cells, whole-cell patch clamp): 1600 ± 300 µM | Effect on TRPM7-mediated current (TRPM7): inhibit TRPM7 | TRPA1 activation (TRPA1): activated

C=CCc1ccc(O)c(OC)c1 [Compound XIII, 2-Methoxy-4-(2-propenyl)phenol]
Effect on TRPL-mediated current (TRPL channels; S2 cells, IX 500 μM, XVII 5 mM): inhibited TRPL; also recorded: large decrease in the TRPL-dependent current | TRPL Activation/Inhibition (TRPL channels): Inhibition | TRPV3 activation (TRPV3): activate TRPV3

Cc1ccc(C(C)C)c(O)c1 [Compound XIV, 2-Isopropyl-5-methylphenol]
Effect on TRPL-mediated current (TRPL channels; S2 cells, IX 500 μM, XVII 5 mM): inhibited TRPL; also recorded: large decrease in the TRPL-dependent current | TRPL Activation/Inhibition (TRPL channels): Inhibition | TRPV3 activation (TRPV3): activate TRPV3

O=C(O)/C=C/c1ccc(O)c(O)c1 [Compound XV, 3,4-Dihydroxycinnamic acid]
Effect on TRPL-mediated current (TRPL channels; S2 cells, IX 500 μM, XVII 5 mM): did not block TRPL | TRPL Activation/Inhibition (TRPL channels): No effect

C=C(C)[C@@H]1CC=C(C)C(O)C1 (stereo partly drawn) [Compound XVI, (5R)-5-Isopropenyl-2-methyl-2-cyclohexenol]
IC50 (TRPL channels): 4220 ± 400 µM | Effect on TRPL-mediated current (TRPL channels; S2 cells, IX 500 μM, XVII 5 mM): large decrease in the TRPL-dependent current | TRPL Activation/Inhibition (TRPL channels): Inhibition

CC1(C)C2CCC1(C)C(O)C2 [Compound XVII, endo-(1R)-1,7,7-Trimethylbicyclo[2.2.1]heptan-2-ol]
Reversibility of effect on TRPL channel (TRPL channels; S2 cells): completely reversible rapid activation | Effect on current when TRPL channels were not expressed (control) (TRPL channels; S2 cells without TRPL expression, IX 500 μM, XVII 5 mM): no effect | Effect on TRPL-mediated current (TRPL channels; S2 cells, IX 500 μM, XVII 5 mM): activated the TRPL channel; also recorded: activated the TRPL-mediated current | TRPL Activation/Inhibition (TRPL channels): Activation | TRPV3 activation (TRPV3): believed to activate TRPV3 | Effect on TRPM7-mediated current (TRPM7): inhibit TRPM7
